Laboratory results as given in patent US20040002510A1, “Crystalline micronisate, process for the manufacture thereof and use thereof for the preparation of a medicament” (Boehringer Ingelheim Pharma GmbH & Co. KG, priority 2002, published 2004).

Key:
[1] = Determining the heat of solution (enthalpy of solution) by solution calorimeter; assay type: physicochemical; settings: chemically pure water, 25° C., mass corrected by water content
Protocol: D.4) Determining the Heat of Solution (Enthalpy of Solution) Ec:
The solution enthalpy is determined using a solution calorimeter 2225 Precision Solution Calorimeter made by Messrs. Thermometric. The heat of solution is calculated by means of the change in temperature occurring (as a result of the dissolving process) and the system-related change in temperature calculated from the base line. Before and after the ampoule is broken, electrical calibration is carried out with an integrated heating resistor of a precisely known power. A known heat output is delivered to the system over a set period and the jump in temperature is determined.
The electrical calibration takes place during the measurement, once before and once after the breakage of the ampoule. The calibration after the breakage of the ampoule is used for the evaluation.
As the mass of the tiotropium bromide micronisate weighed out has to be corrected by the water content of the material, the unsealed ampoules together with about 1 g of the test substance are left to stand open for at least 4 hours. After this equilibration time the ampoules are sealed with the silicon stoppers and the water content of the bulk sample is determined by Karl-Fischer titration. […]
The corrected mass mc determined by this calculation is used as the input value (=weight) to calculate the solution enthalpy measured.

[2] = Determining particle size by laser diffraction (Fraunhofer diffraction); assay type: physicochemical; settings: air dispersal
Description: The micronisate of tiotropium bromide obtainable by the above method has a characteristic particle size X50 of between 1.0 μm and 3.5 μm, preferably between 1.1 μm and 3.3 μm, most preferably between 1.2 μm and 3.0 μm and Q(5.8) of more than 60%, preferably more than 70%, most preferably more than 80%. The characteristic value X50 denotes the median value of the particle size below which 50% of the particles fall, with regard to the distribution by volume of the individual particles. The characteristic value Q(5.8) corresponds to the quantity of particles below 5.8 μm , based on the volume distribution of the particles. The particle sizes were determined within the scope of the present invention by laser diffraction (Fraunhofer diffraction). More detailed information on this subject can be found in the experimental descriptions of the invention.
D.2) Determining Particle Size by Laser Diffraction (Fraunhofer Diffraction)
To determine the particle size the powder is fed into a laser diffraction spectrometer by means of a dispersing unit.

Compound: C[N+]1(C)C2C[C@H](OC(=O)C(O)(c3cccs3)c3cccs3)C[C@H]1[C@H]1OC21 (stereo partly drawn) [tiotropium bromide micronisate, (1α,2β,4β,5α,7β)-7-[(hydroxydi-2-thienylacetyl)oxy]-9,9-dimethyl-3-oxa-9-azoniatricyclo[3.3.1.0^2,4]nonane-bromide]
- specific enthalpy of solution (heat of solution) [1]: more than 65 Ws/g
- Q(5.8) (quantity of particles below 5.8 μm, based on the volume distribution) [2]: more than 60%
